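Results reflect a 48-hour exposure of cells in 96-well plates to compound at five concentrations. TGI: total growth inhibition.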
Columns and labels:
Test in all cases: inhibition of tumour cell growth, NCI panel, 48 h
SF-295 CNS = system: SF-295 CNS
SNB-19 CNS = system: SNB-19 CNS
LXFL 529 NSCLC = system: LXFL 529 NSCLC
KM20L2 colon = system: KM20L2 colon
DMS 114 small cell lung = system: DMS 114 small cell lung
SN12C renal = system: SN12C renal
LOX IMVI melanoma = system: LOX IMVI melanoma
NCI-H226 lung = system: NCI-H226 lung
NCI-H522 lung = system: NCI-H522 lung
A498 renal = system: A498 renal
U251 CNS = system: U251 CNS
TK-10 renal = system: TK-10 renal
SK-OV-3 ovarian = system: SK-OV-3 ovarian
NCI-H460 lung = system: NCI-H460 lung
HT29 colon = system: HT29 colon
DMS 273 small cell lung = system: DMS 273 small cell lung
MOLT-4 leukemia = system: MOLT-4 leukemia
K-562 leukemia = system: K-562 leukemia
UACC-257 melanoma = system: UACC-257 melanoma
KM12 colon = system: KM12 colon
MALME-3M melanoma = system: MALME-3M melanoma
ACHN renal = system: ACHN renal
HOP-18 NSCLC = system: HOP-18 NSCLC
RPMI-8226 leukemia = system: RPMI-8226 leukemia
COLO 205 colon = system: COLO 205 colon
NCI-H23 lung = system: NCI-H23 lung
SR leukemia = system: SR leukemia
SF-539 CNS = system: SF-539 CNS
OVCAR-3 ovarian = system: OVCAR-3 ovarian
UO-31 renal = system: UO-31 renal
786-0 renal = system: 786-0 renal
HOP-92 NSCLC = system: HOP-92 NSCLC
SW-620 colon = system: SW-620 colon
CCRF-CEM leukemia = system: CCRF-CEM leukemia
CAKI-1 renal = system: CAKI-1 renal
HOP-62 NSCLC = system: HOP-62 NSCLC
OVCAR-8 ovarian = system: OVCAR-8 ovarian
SK-MEL-5 melanoma = system: SK-MEL-5 melanoma
SNB-75 CNS = system: SNB-75 CNS
M19-MEL melanoma = system: M19-MEL melanoma
IGROV1 ovarian = system: IGROV1 ovarian
M14 melanoma = system: M14 melanoma
HCT-15 colon = system: HCT-15 colon
XF 498 CNS = system: XF 498 CNS
SF-268 CNS = system: SF-268 CNS
UACC-62 melanoma = system: UACC-62 melanoma
HCT-116 colon = system: HCT-116 colon
HL-60(TB) leukemia = system: HL-60(TB) leukemia
RXF-631 renal = system: RXF-631 renal
DLD-1 colon = system: DLD-1 colon
A549 NSCLC = system: A549 NSCLC
SK-MEL-28 melanoma = system: SK-MEL-28 melanoma

Measured: TGI

CC1(CO)OC(n2cc(C(=O)NC(=O)OCc3ccccc3)c(=O)[nH]c2=O)CC1O (configuration not stated)
> 100 µM: SF-295 CNS | SNB-19 CNS | LXFL 529 NSCLC | KM20L2 colon | DMS 114 small cell lung | SN12C renal | LOX IMVI melanoma | NCI-H226 lung | NCI-H522 lung | A498 renal | U251 CNS | TK-10 renal | SK-OV-3 ovarian | NCI-H460 lung | HT29 colon | DMS 273 small cell lung | MOLT-4 leukemia | K-562 leukemia | UACC-257 melanoma | KM12 colon | MALME-3M melanoma | ACHN renal | HOP-18 NSCLC | RPMI-8226 leukemia | COLO 205 colon | NCI-H23 lung | SR leukemia | SF-539 CNS | OVCAR-3 ovarian | UO-31 renal | 786-0 renal | HOP-92 NSCLC | SW-620 colon | CCRF-CEM leukemia | CAKI-1 renal | HOP-62 NSCLC | OVCAR-8 ovarian | SK-MEL-5 melanoma | SNB-75 CNS | M19-MEL melanoma | IGROV1 ovarian | M14 melanoma | HCT-15 colon | XF 498 CNS | SF-268 CNS | UACC-62 melanoma | HCT-116 colon | HL-60(TB) leukemia | RXF-631 renal | DLD-1 colon | A549 NSCLC | SK-MEL-28 melanoma

— PubChem BioAssay (NCI)
